Experimental data taken from US10556098B2, “Microneedle array coated with drug composition” (TEIJIN LIMITED, priority 2012, dated 2020).

Columns and labels:
[1] = set-up: species or system SD rat; settings: rat, in vivo
Procedure: Additive: 0.5 w/w sodium carboxymethylcellulose ([…] % hydroxypropylcellulose 1000-5000 mPa·s […] Water: 97.75 w/w % The coater shown in FIG. 5 (the volume of a drug aqueous solution: 4 ml) was used. […] After coating said microneedle array with the solution, the microneedle array was dried at room temperature (20-25° C.) for 60 seconds. The hair of the nine-week old male SD rat's abdomen was removed with a hair clipper and a shaver. The microneedle array of FIG. 7 was pressed onto the rat's skin with a finger, and fixed with tape. After one hour, the microneedle array was removed. In order to evaluate the amount of residual desmopressin acetate (the amount remained on the skin surface and the amount attached to the microneedle array), desmopressin acetate was collected as follows. The skin surface was wiped with Kimwipes® impregnated with ethanol, and the amount of the drug collected from the skin was investigated by measuring the drug in the Kimwipes® with a HPLC. The collected microneedle array was immersed in 75% methanol, and the amount of the collected drug was measured with a HPLC.

in vivo = test: in vivo; set-up: species or system SD rat; settings: rat
Procedure: The hair of the nine-week old male SD rat's abdomen was removed with a hair clipper and a shaver. […] Also, the microneedle array after the administration was immersed in 75% methanol, and the amount of the collected drug was measured with a HPLC.

## NC(=O)CC[C@@H]1NC(=O)[C@H](Cc2ccccc2)NC(=O)[C@H](Cc2ccc(O)cc2)NC(=O)CCSSC[C@@H](C(=O)N2CCC[C@H]2C(=O)N[C@H](CCCN=C(N)N)C(=O)NCC(N)=O)NC(=O)[C@H](CC(N)=O)NC1=O [desmopressin acetate]
[1]
  Needles after 1 hour adhesion C (residual drug on microneedle array): <0.025 µg
  Skin after 1 hour adhesion D (residual drug on skin surface): <0.025 µg
In vivo; male, SD, 4.88 ug
  AUC: 14.3 ng·h/mL
In vivo
  Skin absorption amount: >4.83
  Transfer into the blood (change in blood levels, FIG. 8): rapidly transferred in the blood
In vivo; 0.5 h
  Amount remained on microneedle array: <0.025
  Amount remained on skin surface: <0.025
